From the supplement of paper PMC13380429

Key:
Settings in all cases: 72 h
Caco-2 [1] = experiment: cell viability relative to DMSO; higher = less toxic
Calu-3 [2] = experiment: as above
Vero E6 [3] = experiment: as above
U2OS [4] = experiment: as above
HepG2 [5] = experiment: as above
Caco-2 [6] = experiment: drug sensitivity score (DSS) for viability; higher = more toxic; extreme values may be limits of the assay
Calu-3 [7] = experiment: as above
Vero E6 [8] = experiment: as above
U2OS [9] = experiment: as above
HepG2 [10] = experiment: as above
Calu-3 [11] = experiment: relative viability EC50 (midpoint between 100% and the lowest measured viability); higher = less toxic
Vero E6 [12] = experiment: as above
U2OS [13] = experiment: as above
HepG2 [14] = experiment: as above
Caco-2 [15] = experiment: as above

SMILES | cell viability (Caco-2 [1]; 1 nM) [%] | cell viability (Caco-2 [1]; 10 nM) [%] | cell viability (Caco-2 [1]; 100 nM) [%] | cell viability (Caco-2 [1]; 1000 nM) [%] | cell viability (Caco-2 [1]; 10000 nM) [%] | cell viability (Calu-3 [2]; 1 nM) [%] | cell viability (Calu-3 [2]; 10 nM) [%] | cell viability (Calu-3 [2]; 100 nM) [%] | cell viability (Calu-3 [2]; 1000 nM) [%] | cell viability (Calu-3 [2]; 10000 nM) [%] | cell viability (Vero E6 [3]; 1 nM) [%] | cell viability (Vero E6 [3]; 10 nM) [%] | cell viability (Vero E6 [3]; 100 nM) [%] | cell viability (Vero E6 [3]; 1000 nM) [%] | cell viability (Vero E6 [3]; 10000 nM) [%] | cell viability (U2OS [4]; 1 nM) [%] | cell viability (U2OS [4]; 10 nM) [%] | cell viability (U2OS [4]; 100 nM) [%] | cell viability (U2OS [4]; 1000 nM) [%] | cell viability (U2OS [4]; 10000 nM) [%] | cell viability (HepG2 [5]; 1 nM) [%] | cell viability (HepG2 [5]; 10 nM) [%] | cell viability (HepG2 [5]; 100 nM) [%] | cell viability (HepG2 [5]; 1000 nM) [%] | cell viability (HepG2 [5]; 10000 nM) [%] | drug sensitivity score (Caco-2 [6]) | drug sensitivity score (Calu-3 [7]) | drug sensitivity score (Vero E6 [8]) | drug sensitivity score (U2OS [9]) | drug sensitivity score (HepG2 [10]) | relative viability EC50 (Calu-3 [11]) [µM] | relative viability EC50 (Vero E6 [12]) [µM] | relative viability EC50 (U2OS [13]) [µM] | relative viability EC50 (HepG2 [14]) [µM] | relative viability EC50 (Caco-2 [15]) [µM]
CC(C)(O)C(=O)N1CCN(c2ccc(C(F)(F)F)c(C3=C(c4c[nH]c5ccccc45)C(=O)NC3=O)c2)CC1 | 92.7 | 95.5 | 95.7 | 105 | 51.1 | 102 | 93.2 | 106 | 117 | 46.2 | 102 | 97.7 | 96.9 | 104 | 29.5 | 99.6 | 95.8 | 103 | 102 | 35.6 | 101 | 96.5 | 103 | 107 | 7.5 | 2.2 | 2.1 | 3.6 | 3.3 | 4.6 | 4.17 | 3.46 | 3.35 | 3.57 | –
CCCCn1ccc(N2CCC(c3ccccc3)CC2)c(Cl)c1=O | 102 | 103 | 87.7 | 111 | 68.4 | 107 | 96.7 | 87 | 99.3 | 89.8 | 106 | 106 | 104 | 106 | 97.2 | 100 | 98.7 | 100 | 98.8 | 99 | 99.2 | 101 | 86.7 | 108 | 78.9 | 1 | 0 | 0 | 0 | 0.4 | > 10 | > 10 | > 10 | > 10 | –
CCc1ccc(/C=C2/SC(=S)NC2=O)cc1 | 102 | 85.3 | 101 | 108 | 93.3 | 101 | 87 | 97.9 | 93.4 | 103 | – | – | – | – | – | 97.9 | 95.9 | 99.8 | 94.9 | 96.7 | 98.2 | 106 | 93.7 | 95.9 | 95.6 | 0 | 0 | – | 0 | 0 | > 10 | – | > 10 | > 10 | > 10
CN(C)C1CCN(C(=O)c2ccc(NC(=O)Nc3ccc(-c4nc(N5CCOCC5)nc(N5CCOCC5)n4)cc3)cc2)CC1 | 93.8 | 93.7 | 102 | 87.1 | 66.7 | 105 | 90.5 | 87.2 | 65.6 | 35.5 | 94.2 | 100 | 89.3 | 90.7 | 107 | 97.7 | 97.8 | 100 | 92.1 | 79.7 | 98.5 | 108 | 95.8 | 100 | 84.3 | 3.3 | 8.3 | 0 | 1.5 | 0.3 | 0.635 | > 10 | > 10 | > 10 | –
COc1ccc(S(=O)(=O)N2CCCN(S(=O)(=O)c3ccc(OC)c(OC)c3)CC2)cc1OC | 89.4 | 90.5 | 94.5 | 102 | 108 | 89.1 | 84.7 | 102 | 94.4 | 92.1 | – | – | – | – | – | 98.6 | 96.1 | 99.3 | 100 | 97 | 99.3 | 100 | 79.4 | 98.7 | 110 | 0 | 0 | – | 0 | 0 | > 10 | – | > 10 | > 10 | > 10
CC#C[C@@H](CC(=O)O)c1ccc(OCc2cccc(-c3ccc(C(F)(F)F)cc3)c2)cc1 [AMG-837] | 102 | 95.3 | 97.7 | 94.9 | 93.2 | 104 | 104 | 110 | 92.7 | 94.9 | 97.5 | 100 | 95.8 | 102 | 97.4 | 101 | 94.7 | 99.9 | 95 | 93.9 | – | – | – | – | – | 0 | 0 | 0 | 0 | – | > 10 | > 10 | > 10 | – | > 10
O=C(Nc1c[nH]nc1-c1nc2ccc(CN3CCOCC3)cc2[nH]1)NC1CC1 [AT-9283] | 87.1 | 102 | 90.9 | 90.7 | 71.8 | 107 | 96.9 | 85.9 | 65.4 | 43.6 | 99.9 | 93.1 | 90.4 | 86.7 | 66.7 | 98.2 | 97.7 | 80.6 | 74.7 | 1.1 | 96.6 | 97.7 | 82.4 | 57.3 | 5.8 | 2 | 8 | 3.1 | 8.8 | 10.8 | 0.461 | – | 1.66 | 0.93 | –
c1cn2cc(-c3ccc4cn[nH]c4c3)nc(Nc3ccc(N4CCOCC4)cc3)c2n1 [GS-9973] | 108 | 108 | 98.3 | 99.7 | 91.4 | 95.2 | 103 | 90 | 94.3 | 92.7 | – | – | – | – | – | 94.1 | 101 | 98.2 | 98 | 92.2 | 105 | 103 | 100 | 93.8 | 92.5 | 0 | 0 | – | 0 | 0 | > 10 | – | > 10 | > 10 | > 10
CCCn1c(=O)c2nc(C34CC5CC(CC3C5)C4)[nH]c2n(CCC)c1=O [KW-3902] | 95.9 | 94.4 | 101 | 95.1 | 82.5 | 83.8 | 89.3 | 92.6 | 96.6 | 100 | – | – | – | – | – | 98.8 | 96.5 | 100 | 99.5 | 102 | 94.2 | 92.9 | 98.2 | 101 | 91.6 | 0.9 | 0 | – | 0 | 0 | > 10 | – | > 10 | > 10 | > 10
CCCS(=O)(=O)Nc1ccc(F)c(C(=O)c2c[nH]c3ncc(Cl)cc23)c1F [PLX4720] | 96.8 | 96.9 | 93.6 | 91 | 73.3 | 93.4 | 89.8 | 100 | 106 | 106 | 106 | 100 | 100 | 106 | 82.5 | 102 | 95.8 | 97.1 | 100 | 101 | 104 | 94.6 | 104 | 90.9 | 49.5 | 1.7 | 0 | 0.2 | 0 | 4.2 | > 10 | > 10 | > 10 | 1.82 | –
CC(=O)O[C@]1(C(C)=O)CC[C@H]2[C@@H]3CCC4=CC(=O)CCC4=C3[C@@H](c3ccc(N(C)C)cc3)C[C@@]21C [Ulipristal acetate] | 94.7 | 94.7 | 98.3 | 97.9 | 67.8 | 105 | 106 | 97.1 | 104 | 110 | 104 | 98.2 | 99.3 | 97 | 98.3 | 103 | 103 | 99.1 | 99.6 | 94.9 | 110 | 110 | 103 | 97.9 | 104 | 1.8 | 0 | 0 | 0 | 0 | > 10 | > 10 | > 10 | > 10 | –
C[S+](CC[C@H](N)C(=O)O)C[C@H]1O[C@@H](n2cnc3c(N)ncnc32)[C@H](O)[C@@H]1O (some centres undefined) [ademetionine] | – | – | – | – | – | 106 | 106 | 105 | 99.8 | 96.3 | 99.8 | 104 | 103 | 108 | 92.2 | 100 | 97.9 | 98.5 | 98 | 106 | 94.7 | 105 | 89.9 | 91.4 | 91.3 | – | 0 | 0 | 0 | 0 | > 10 | > 10 | > 10 | > 10 | –
CN1[C@H]2C[C@H](OC(=O)[C@H](CO)c3ccccc3)C[C@@H]1[C@@H](O)C2 [anisodamine] | 107 | 108 | 101 | 115 | 99.2 | 101 | 103 | 105 | 91.8 | 108 | – | – | – | – | – | 98 | 105 | 98.8 | 101 | 97.6 | 104 | 111 | 79.8 | 104 | 102 | 0 | 0 | – | 0 | 0 | > 10 | – | > 10 | > 10 | > 10
CCC1(c2c[nH]cn2)Cc2ccccc2C1 [atipamezole] | 104 | 115 | 104 | 100 | 108 | 96.9 | 101 | 94.9 | 106 | 93.5 | – | – | – | – | – | – | – | – | – | – | 102 | 95.5 | 111 | 100 | 109 | 0 | 0 | – | – | 0 | > 10 | – | – | > 10 | > 10
CC(C)c1cc(C(C)C)c(CC(=O)NS(=O)(=O)Oc2c(C(C)C)cccc2C(C)C)c(C(C)C)c1 [avasimibe] | 90.3 | 96.3 | 91 | 106 | 72.3 | 92.2 | 104 | 99.1 | 98.8 | 102 | 100 | 94.8 | 93.2 | 94.4 | 81 | 97.6 | 98.7 | 95.4 | 99.7 | 92.3 | 102 | 108 | 106 | 97.6 | 79.4 | 0.8 | 0 | 0.6 | 0 | 1 | > 10 | > 10 | > 10 | > 10 | –
